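Grown in 96-well plates, cells were treated for 48 hours with each compound at five concentrations. Insufficient inhibition: endpoint recorded as highest concentration tested. The concentration for 50% growth inhibition is given as GI50.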 Activity calls are given as the source filed them. Rule as the data show it: active = GI50 up to about 1.1 µM and inactive = higher.
Experiments:
Test in all cases: NCI tumour cell line growth inhibition, 48 h
[1] = test system: NCI-H226
[2] = test system: OVCAR-8
[3] = test system: ACHN
[4] = test system: M19-MEL
[5] = test system: SF-539
[6] = test system: K562
[7] = test system: SK-MEL-28
[8] = test system: SN12C
[9] = test system: DLD-1
[10] = test system: A549
[11] = test system: RXF 393
[12] = test system: OVCAR-5
[13] = test system: NCI-H23
[14] = test system: U-251
[15] = test system: EKVX
[16] = test system: SF-295

Measured: GI50

C/C(CC(=O)NC1=CC=C(NC(=O)C/C(C)=N\Nc2ccccc2)CC1)=N/Nc1ccccc1
inactive: [1] > 100 µM | [2] > 100 µM | [3] > 100 µM | [4] > 100 µM | [5] > 100 µM | [6] 75.7 µM | [7] > 100 µM | [8] > 100 µM | [9] > 100 µM | [10] > 100 µM | [11] > 100 µM | [12] > 100 µM | [13] > 100 µM | [14] > 100 µM | [15] > 100 µM | [16] > 100 µM

Nc1nncc2c1c(Br)cn2C1OC(CO)C(O)C1O (stereo not drawn)
inactive: [1] > 100 µM | [2] 1.49 µM | [3] 15.1 µM | [4] > 100 µM | [5] 30.5 µM | [6] 5.73 µM | [7] > 100 µM | [8] 5.3 µM | [9] 4.82 µM | [10] 31.7 µM | [11] 30.8 µM | [12] > 62.2 µM | [13] 10.9 µM | [14] > 70.6 µM | [15] 25.6 µM | [16] 39.6 µM

O=C(/C=C/c1ccccc1)NC1C=Nc2ccc([N+](=O)[O-])cc2NC1=O (stereo not drawn)
inactive: [1] > 100 µM | [2] > 100 µM | [3] 26.2 µM | [4] 38.4 µM | [5] > 100 µM | [6] 27 µM | [7] > 100 µM | [8] > 100 µM | [9] > 100 µM | [10] > 100 µM | [11] > 100 µM | [12] 71.9 µM | [13] 76.4 µM | [14] > 100 µM | [15] > 100 µM | [16] 30.3 µM

Cc1c(Cl)cccc1NC(=O)/C(Cl)=C(\Cl)C(=O)O
inactive: [1] 20.7 µM | [3] 17.5 µM | [4] 17 µM | [5] 17 µM | [6] 6.19 µM | [7] 20.5 µM | [8] 17.4 µM | [9] 18.2 µM | [10] 19.5 µM | [11] 19.9 µM | [12] 16.9 µM | [13] 19.5 µM | [14] 18.5 µM | [15] > 10 µM | [16] 19.4 µM

O=C(CC1(O)C(=O)Nc2ccccc21)c1ccccc1Cl (stereo not drawn)
inactive: [1] > 100 µM | [2] > 100 µM | [3] > 100 µM | [4] > 100 µM | [5] > 100 µM | [6] > 100 µM | [7] > 100 µM | [8] > 100 µM | [9] > 100 µM | [10] > 100 µM | [11] > 100 µM | [12] > 100 µM | [13] > 100 µM | [15] > 100 µM | [16] > 100 µM

— ChEMBL document CHEMBL1201862, “PubChem BioAssay data set” (2004)
